Like-named read-outs stand apart in the source and are kept apart here. Values belong to the compound of their own block, whether it stands above or below them.
Experiments:
A549 = test: Monolayer Cell Culture Assay, IC50; assay type: cell-based; settings: A549, Lung
Excerpt: (§1) All IC50 studies' methodology and materials are described in full details in international publication number WO 2019/160806 dated Aug. 22, 2019, but with substituting the binary molecular complex with the ternary molecular complex of the present invention.

PANC-1 = test: Monolayer Cell Culture Assay, IC50; assay type: cell-based; settings: PANC-1, Pancreas
Excerpt: as §1

PC-3 = test: Monolayer Cell Culture Assay, IC50; assay type: cell-based; settings: PC-3, Prostate
Excerpt: as §1

SK-ES-1 = test: Monolayer Cell Culture Assay, IC50; assay type: cell-based; settings: SK-ES-1, Sarcoma
Excerpt: as §1

SK-Mel-5 = test: Monolayer Cell Culture Assay, IC50; assay type: cell-based; settings: SK-Mel-5, Skin
Excerpt: as §1

U-2 OS = test: Monolayer Cell Culture Assay, IC50; assay type: cell-based; settings: Sarcoma
Excerpt: as §1

CT26 = test: Monolayer Cell Culture Assay, IC50; assay type: cell-based; settings: Mus musculus, CT26, Colon
Excerpt: as §1

HCT116 = test: Monolayer Cell Culture Assay, IC50; assay type: cell-based; settings: Homo sapiens, HCT-116, HCT116, Colon
Excerpt: as §1

HT29 = test: Monolayer Cell Culture Assay, IC50; assay type: cell-based; settings: Homo sapiens, HT-29, HT29, Colon
Excerpt: as §1

MC38 = test: Monolayer Cell Culture Assay, IC50; assay type: cell-based; settings: Mus musculus, MC-38, MC38, Colon
Excerpt: as §1

[1] = cited from earlier work
[2] = assay type: physicochemical
Description: 30.0 mg of tamibarotene, 11.4 mg of L-malic acid and 43.5 mg of telmisartan (1:1:1 molar ratio) were stirred as an open slurry in 1 mL of acetone in a glass vial. After 16-24 hours of stirring mixture was further dried at room temperature until, a completely dried mixture is obtained. The resulted material was stored in a screw cap vial and characterized by PXRD and IR. PXRD comparison of binary tamibarotene-L-malic acid complex (TN-513) with tamibarotene-L-malic acid-telmisartan (TN-513-T) also confirmed the successful synthesis of a ternary complex. Synthesis of ternary TN-513-T was scaled up to 150 mg of tamibarotene and stability was tested on accelerated conditions (75% humidity at 40° C.) for 1 and three months.

lung cancer cells = test: Sphere assay; assay type: cell-based
Excerpt: All sphere assay studies methodology and materials are described in full details in international publication number WO 2019/160806 dated Aug. 22, 2019, but with substituting the binary molecular complex with the ternary molecular complex of the present invention.

[3] = average of two tests, read-out: IC50 Test AVG Avg
[4] = Homo sapiens, average of two tests, read-out: IC50 Test AVG Avg
[5] = Homo sapiens, read-out: IC50 Test (II) Avg
[6] = Homo sapiens, read-out: IC50 Test(I) Avg

- IC50 (A549; [3]): 52.4 µM
- IC50 (A549; read-out: IC50 Test (II) Avg): 62.2 µM
- IC50 (A549; read-out: IC50 Test(I) Avg): 42.7 µM
- IC50 (PANC-1; [3]): 70.6 µM
- IC50 (PANC-1; read-out: IC50 Test (II) Avg): 88 µM
- IC50 (PANC-1; read-out: IC50 Test(I) Avg): 53.3 µM
- IC50 (PC-3; [3]): 106 µM
- IC50 (PC-3; read-out: IC50 Test (II) Avg): 111 µM
- IC50 (PC-3; read-out: IC50 Test(I) Avg): 102 µM
- IC50 (SK-ES-1; [3]): 31.4 µM
- IC50 (SK-ES-1; read-out: IC50 Test (II) Avg): 33.6 µM
- IC50 (SK-ES-1; read-out: IC50 Test(I) Avg): 29.2 µM
- IC50 (SK-Mel-5; [3]): 46.1 µM
- IC50 (SK-Mel-5; read-out: IC50 Test (II) Avg): 42.6 µM
- IC50 (SK-Mel-5; read-out: IC50 Test(I) Avg): 49.5 µM
- IC50 (U-2 OS; [3]): 42.8 µM
- IC50 (U-2 OS; read-out: IC50 Test (II) Avg): 45.8 µM
- IC50 (U-2 OS; read-out: IC50 Test(I) Avg): 39.9 µM
SMILES: CC1(C)CCC(C)(C)c2cc(NC(=O)c3ccc(C(=O)O)cc3)ccc21.CCOc1nc2cccc(C(=O)O)c2n1Cc1ccc(-c2ccccc2-c2nn[nH]n2)cc1 [TN513:CS, Tamibarotene:L-malic acid:candesartan]

- IC50 (A549; [3]): 110 µM
- IC50 (A549; read-out: IC50 Test (II) Avg): 126 µM
- IC50 (A549; read-out: IC50 Test(I) Avg): 93.8 µM
- IC50 (PANC-1; [3]): 126 µM
- IC50 (PANC-1; read-out: IC50 Test (II) Avg): 149 µM
- IC50 (PANC-1; read-out: IC50 Test(I) Avg): 104 µM
- IC50 (PC-3; [3]): 332 µM
- IC50 (PC-3; read-out: IC50 Test (II) Avg): 343 µM
- IC50 (PC-3; read-out: IC50 Test(I) Avg): 322 µM
- IC50 (SK-ES-1; [3]): 106 µM
- IC50 (SK-ES-1; read-out: IC50 Test (II) Avg): 122 µM
- IC50 (SK-ES-1; read-out: IC50 Test(I) Avg): 90 µM
- IC50 (SK-Mel-5; [3]): 116 µM
- IC50 (SK-Mel-5; read-out: IC50 Test (II) Avg): 132 µM
- IC50 (SK-Mel-5; read-out: IC50 Test(I) Avg): 99.9 µM
- IC50 (U-2 OS; [3]): 64.8 µM
- IC50 (U-2 OS; read-out: IC50 Test (II) Avg): 69.6 µM
- IC50 (U-2 OS; read-out: IC50 Test(I) Avg): 59.9 µM
SMILES: CC1(C)CCC(C)(C)c2cc(NC(=O)c3ccc(C(=O)O)cc3)ccc21.CCCCc1nc(Cl)c(CO)n1Cc1ccc(-c2ccccc2-c2nn[nH]n2)cc1 [TN513:LS, Tamibarotene:L-malic acid:losartan]

- IC50 (A549; [4]): 60.3 µM
- IC50 (CT26; [3]): 87.3 µM
- IC50 (CT26; read-out: IC50 Test (I) Avg): 61.9 µM
- IC50 (CT26; read-out: IC50 Test (II) Avg): 94.8 µM
- IC50 (HCT116; [3]): 60.4 µM
- IC50 (HCT116; read-out: IC50 Test (I) Avg): 49.6 µM
- IC50 (HCT116; read-out: IC50 Test (II) Avg): 71.3 µM
- IC50 (HT29; [3]): 100 µM
- IC50 (HT29; read-out: IC50 Test (I) Avg): 88.9 µM
- IC50 (HT29; read-out: IC50 Test (II) Avg): 111 µM
- IC50 (MC38; [3]): 101 µM
- IC50 (MC38; read-out: IC50 Test (I) Avg): 65.7 µM
- IC50 (MC38; read-out: IC50 Test (II) Avg): 137 µM
- IC50 (PANC-1; [4]): > 100 µM
- IC50 (PANC-1; [5]): > 100 µM
- IC50 (PANC-1; [6]): > 100 µM
- IC50 (PC-3; [4]): > 100 µM
- IC50 (PC-3; [5]): > 100 µM
- IC50 (PC-3; [6]): > 100 µM
- IC50 (SK-ES-1; Homo sapiens, SK-ES1, average of two tests, read-out: IC50 Test AVG Avg): > 100 µM
- IC50 (SK-ES-1; Homo sapiens, SK-ES1, read-out: IC50 Test (II) Avg): > 100 µM
- IC50 (SK-ES-1; Homo sapiens, SK-ES1, read-out: IC50 Test(I) Avg): > 100 µM
- IC50 (SK-Mel-5; [4]): > 100 µM
- IC50 (SK-Mel-5; [5]): > 100 µM
- IC50 (SK-Mel-5; [6]): > 100 µM
- IC50 (U-2 OS; Homo sapiens, U2OS, average of two tests, read-out: IC50 Test AVG Avg): > 100 µM
- IC50 (U-2 OS; Homo sapiens, U2OS, read-out: IC50 Test (II) Avg): > 100 µM
- IC50 (U-2 OS; Homo sapiens, U2OS, read-out: IC50 Test(I) Avg): > 100 µM
SMILES: CC1(C)CCC(C)(C)c2cc(NC(=O)c3ccc(C(=O)O)cc3)ccc21 [TAM, 4-[(5,5,8,8-tetramethyl-5,6,7,8-tetrahydronaphthalen-2-yl)carbamoyl]benzoic acid, reference compound]
- solubility in organic solvents ([1]; DMF, methanol, ethanol, DMSO, and other organic solvents): soluble
- solubility in acetonitrile, water, and various other buffer solutions ([1]; acetonitrile, water, buffer solutions pH3~7 (CN 101200435 B)): insoluble

- IC50 (A549; [3]): 16 µM
- IC50 (A549; read-out: IC50 Test (II) Avg): 19.9 µM
- IC50 (A549; read-out: IC50 Test(I) Avg): 12 µM
- IC50 (PANC-1; [3]): 32.5 µM
- IC50 (PANC-1; read-out: IC50 Test (II) Avg): 40.2 µM
- IC50 (PANC-1; read-out: IC50 Test(I) Avg): 24.8 µM
- IC50 (PC-3; [3]): 71.2 µM
- IC50 (PC-3; read-out: IC50 Test (II) Avg): 70.8 µM
- IC50 (PC-3; read-out: IC50 Test(I) Avg): 71.7 µM
- IC50 (SK-ES-1; [3]): 17.9 µM
- IC50 (SK-ES-1; read-out: IC50 Test (II) Avg): 18.4 µM
- IC50 (SK-ES-1; read-out: IC50 Test(I) Avg): 17.4 µM
- IC50 (SK-Mel-5; [3]): 20.7 µM
- IC50 (SK-Mel-5; read-out: IC50 Test (II) Avg): 26.1 µM
- IC50 (SK-Mel-5; read-out: IC50 Test(I) Avg): 15.3 µM
- IC50 (U-2 OS; [3]): 12.9 µM
- IC50 (U-2 OS; read-out: IC50 Test (II) Avg): 14.6 µM
- IC50 (U-2 OS; read-out: IC50 Test(I) Avg): 11.2 µM
- stability on accelerated conditions (PXRD) [2]: no change in PXRD data
SMILES: CC1(C)CCC(C)(C)c2cc(NC(=O)c3ccc(C(=O)O)cc3)ccc21.CCCc1nc2c(C)cc(-c3nc4ccccc4n3C)cc2n1Cc1ccc(-c2ccccc2C(=O)O)cc1.O=C(O)C[C@H](O)C(=O)O [TN513:TS, Tamibarotene:L-malic acid:telmisartan]
- preventing sphere aggregation (sphere formation efficacy) (lung cancer cells; FIG. 10): superior efficacy preventing sphere aggregation
- total surface area of the cancer cell spheres (lung cancer cells; FIG. 11): dramatically reducing the total surface area

Source: US20220185767A1, “NOVEL TERNARY MOLECULAR COMPLEX OF TAMIBAROTENE FOR CANCER STEM CELLS TREATMENT” (TRANSGENEX NANOBIOTECH, INC., priority 2019, published 2022)
